Patent publication US12043632B2, “6-heteroaryloxy benzimidazoles and azabenzimidazoles as JAK2 inhibitors” (Ajax Therapeutics, Inc., priority 2020, dated 2024)

Target: T1, JAK2 (JH1domain-catalytic, Y1007F,Y1008F) kinase (Homo sapiens, UniProt O60674, Y1007F/Y1008F)
T1 construct: JAK2 (JH1domain-catalytic, Y1007F,Y1008F) kinase was expressed as N-terminal fusion; made in house; host or cells: transiently transfected HEK293 cells
Experiment: JAK2 JH1 Domain Binding Assay
Settings: qPCR readout

T1 sequence (O60674 849-1124 Y1007F/Y1008F limits assumed): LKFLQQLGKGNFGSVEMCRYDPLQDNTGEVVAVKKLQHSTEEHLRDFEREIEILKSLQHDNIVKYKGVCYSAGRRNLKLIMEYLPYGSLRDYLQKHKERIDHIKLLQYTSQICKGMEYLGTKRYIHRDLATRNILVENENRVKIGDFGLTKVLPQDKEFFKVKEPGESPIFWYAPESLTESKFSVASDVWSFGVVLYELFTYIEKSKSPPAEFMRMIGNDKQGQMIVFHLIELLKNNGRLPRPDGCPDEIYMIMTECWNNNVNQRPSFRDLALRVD

Kd [nM]	SMILES
50 to 1000	CNc1cn2ncc(Oc3cnc4nc(Nc5cc(C(F)(F)F)n(C6CC7(COC7)C6)n5)n(C)c4c3Cl)c2cn1 [Example I-310, N-(1-(2-oxaspiro[3.3]heptan-6-yl)-5-(trifluoromethyl)-1H-pyrazol-3-yl)-7-chloro-1-methyl-6-((6-(methylamino)pyrazolo[1,5-a]pyrazin-3-yl)oxy)-1H-imidazo[4,5-b]pyridin-2-amine]
10 to 50	CNc1cn2ncc(Oc3cnc4nc(Nc5cc6c(c(C(F)(F)F)c5)C(C)(C)N(C)C6=O)n(C)c4c3Cl)c2cn1 [Example I-311, 6-((7-chloro-1-methyl-6-((6-(methylamino)pyrazolo[1,5-a]pyrazin-3-yl)oxy)-1H-imidazo[4,5-b]pyridin-2-yl)amino)-2,3,3-trimethyl-4-(trifluoromethyl)isoindolin-1-one]
< 10	CNc1cn2ncc(Oc3cnc4nc(Nc5cc(C6CC6)cn(C)c5=O)n(C)c4c3Cl)c2cn1 [Example I-312, 3-((7-chloro-1-methyl-6-((6-(methylamino)pyrazolo[1,5-a]pyrazin-3-yl)oxy)-1H-imidazo[4,5-b]pyridin-2-yl)amino)-5-cyclopropyl-1-methylpyridin-2(1H)-one]
< 10	CNc1cn2ncc(Oc3cnc4nc(Nc5cc(C(F)(F)F)cn(C(C)C)c5=O)n(C)c4c3Cl)c2cn1 [Example I-313, 3-((7-chloro-1-methyl-6-((6-(methylamino)pyrazolo[1,5-a]pyrazin-3-yl)oxy)-1H-imidazo[4,5-b]pyridin-2-yl)amino)-1-isopropyl-5-(trifluoromethyl)pyridin-2(1H)-one]
< 10	CNc1cn2ncc(Oc3cnc4nc(Nc5cc(O[C@H]6CCN(C)C6)cc(C(F)(F)F)c5)n(C)c4c3Cl)c2cn1 [Example I-314, (S)-7-chloro-1-methyl-6-((6-(methylamino)pyrazolo[1,5-a]pyrazin-3-yl)oxy)-N-(3-((1-methylpyrrolidin-3-yl)oxy)-5-(trifluoromethyl)phenyl)-1H-imidazo[4,5-b]pyridin-2-amine]
< 10	CNc1cn2ncc(Oc3cnc4nc(Nc5cc(O[C@@H]6CCN(C)C6)cc(C(F)(F)F)c5)n(C)c4c3Cl)c2cn1 [Example I-315, (R)-7-chloro-1-methyl-6-((6-(methylamino)pyrazolo[1,5-a]pyrazin-3-yl)oxy)-N-(3-((1-methylpyrrolidin-3-yl)oxy)-5-(trifluoromethyl)phenyl)-1H-imidazo[4,5-b]pyridin-2-amine]
10 to 50	CNc1cn2ncc(Oc3cnc4nc(Nc5cc(CN6CCCC6)cc(C(F)(F)F)c5)n(C)c4c3Cl)c2cn1 [Example I-316, 7-chloro-1-methyl-6-((6-(methylamino)pyrazolo[1,5-a]pyrazin-3-yl)oxy)-N-(3-(pyrrolidin-1-ylmethyl)-5-(trifluoromethyl)phenyl)-1H-imidazo[4,5-b]pyridin-2-amine]
10 to 50	CNc1cn2ncc(Oc3cnc4nc(Nc5cc(C6CC6)nn(C)c5=O)n(C)c4c3Cl)c2cn1 [Example I-317, 4-((7-chloro-1-methyl-6-((6-(methylamino)pyrazolo[1,5-a]pyrazin-3-yl)oxy)-1H-imidazo[4,5-b]pyridin-2-yl)amino)-6-cyclopropyl-2-methylpyridazin-3(2H)-one]
10 to 50	CNc1cn2ncc(Oc3cnc4nc(Nc5cc(C(F)(F)F)cn(C)c5=O)n(C)c4c3OC)c2cn1 [Example I-318, 3-((7-methoxy-1-methyl-6-((6-(methylamino)pyrazolo[1,5-a]pyrazin-3-yl)oxy)-1H-imidazo[4,5-b]pyridin-2-yl)amino)-1-methyl-5-(trifluoromethyl)pyridin-2(1H)-one]
< 10	COCc1n[nH]c2ncc(Oc3cnc4nc(Nc5cc(C(F)(F)F)cn(C)c5=O)n(C)c4c3C#N)cc12 [Example I-319, 6-((3-(methoxymethyl)-1H-pyrazolo[3,4-b]pyridin-5-yl)oxy)-1-methyl-2-((1-methyl-2-oxo-5-(trifluoromethyl)-1,2-dihydropyridin-3-yl)amino)-1H-imidazo[4,5-b]pyridine-7-carbonitrile]
10 to 50	CNc1ccc2c(Oc3cnc4nc(Nc5cc(C(F)(F)F)cn(C)c5=O)n(C)c4c3)cnn2c1 [Example I-320, 1-methyl-3-((1-methyl-6-((6-(methylamino)pyrazolo[1,5-a]pyridin-3-yl)oxy)-1H-imidazo[4,5-b]pyridin-2-yl)amino)-5-(trifluoromethyl)pyridin-2(1H)-one]
< 10	CNc1cn2ncc(Oc3cnc4nc(Nc5cc(C(F)(F)F)cn(C6CC6)c5=O)n(C)c4c3Cl)c2cn1 [Example I-321, 3-((7-chloro-1-methyl-6-((6-(methylamino)pyrazolo[1,5-a]pyrazin-3-yl)oxy)-1H-imidazo[4,5-b]pyridin-2-yl)amino)-1-cyclopropyl-5-(trifluoromethyl)pyridin-2(1H)-one]
10 to 50	Cn1c(Nc2cc(C(F)(F)F)n(C3CC4(COC4)C3)n2)nc2ncc(Oc3cnc4[nH]ccc4c3)c(C#N)c21 [Example I-322, 6-((1H-pyrrolo[2,3-b]pyridin-5-yl)oxy)-2-((1-(2-oxaspiro[3.3]heptan-6-yl)-5-(trifluoromethyl)-1H-pyrazol-3-yl)amino)-1-methyl-1H-imidazo[4,5-b]pyridine-7-carbonitrile]
10 to 50	Cn1cc(C(F)(F)F)cc(Nc2nc3ncc(Oc4cnn5ccn(C)c(=O)c45)c(Cl)c3n2C)c1=O [Example I-323, 3-((7-chloro-1-methyl-2-((1-methyl-2-oxo-5-(trifluoromethyl)-1,2-dihydropyridin-3-yl)amino)-1H-imidazo[4,5-b]pyridin-6-yl)oxy)-5-methylpyrazolo[1,5-a]pyrazin-4(5H)-one]
50 to 1000	CNc1cn2ncc(Oc3cnc4nc(Nc5cc(C(F)(F)F)cn(-c6cccnc6)c5=O)n(C)c4c3Cl)c2cn1 [Example I-324, 3-((7-chloro-1-methyl-6-((6-(methylamino)pyrazolo[1,5-a]pyrazin-3-yl)oxy)-1H-imidazo[4,5-b]pyridin-2-yl)amino)-5-(trifluoromethyl)-2H-[1,3′-bipyridin]-2-one]
10 to 50	[2H]C([2H])([2H])n1cc(C(F)(F)F)cc(Nc2nc3ncc(Oc4cnn5cc(NC)ncc45)c(Cl)c3n2C)c1=O [Example I-325, 3-((7-chloro-1-methyl-6-((6-(methylamino)pyrazolo[1,5-a]pyrazin-3-yl)oxy)-1H-imidazo[4,5-b]pyridin-2-yl)amino)-1-(methyl-d3)-5-(trifluoromethyl)pyridin-2(1H)-one]
50 to 1000	CNc1cn2ncc(Oc3cnc4nc(Nc5ccc(CN6CCC(F)(F)C6)c(C(F)(F)F)c5)n(C)c4c3Cl)c2cn1 [Example I-326, 7-chloro-N-(4-((3,3-difluoropyrrolidin-1-yl)methyl)-3-(trifluoromethyl)phenyl)-1-methyl-6-((6-(methylamino)pyrazolo[1,5-a]pyrazin-3-yl)oxy)-1H-imidazo[4,5-b]pyridin-2-amine]
10 to 50	CNc1cn2ncc(Oc3cnc4nc(Nc5cc(CN(C)C)cc(C(F)(F)F)c5)n(C)c4c3Cl)c2cn1 [Example I-327, 7-chloro-N-(3-((dimethylamino)methyl)-5-(trifluoromethyl)phenyl)-1-methyl-6-((6-(methylamino)pyrazolo[1,5-a]pyrazin-3-yl)oxy)-1H-imidazo[4,5-b]pyridin-2-amine]
10 to 50	CNc1cn2ncc(Oc3cnc4nc(Nc5cc(C(F)(F)F)cn(-c6cnn(C)c6)c5=O)n(C)c4c3Cl)c2cn1 [Example I-328, 3-((7-chloro-1-methyl-6-((6-(methylamino)pyrazolo[1,5-a]pyrazin-3-yl)oxy)-1H-imidazo[4,5-b]pyridin-2-yl)amino)-1-(1-methyl-1H-pyrazol-4-yl)-5-(trifluoromethyl)pyridin-2(1H)-one]
< 10	Cc1c[nH]c2ncc(Oc3cnc4nc(Nc5cc(C(F)(F)F)cn(C)c5=O)n(C)c4c3C#N)cc12 [Example I-329, 1-methyl-6-((3-methyl-1H-pyrrolo[2,3-b]pyridin-5-yl)oxy)-2-((1-methyl-2-oxo-5-(trifluoromethyl)-1,2-dihydropyridin-3-yl)amino)-1H-imidazo[4,5-b]pyridine-7-carbonitrile]
< 10	Cn1c(Nc2cc(C(F)(F)F)n(C3CC4(COC4)C3)n2)nc2ncc(Oc3cnc4[nH]ncc4c3)c(C#N)c21 [Example I-330, 6-((1H-pyrazolo[3,4-b]pyridin-5-yl)oxy)-2-((1-(2-oxaspiro[3.3]heptan-6-yl)-5-(trifluoromethyl)-1H-pyrazol-3-yl)amino)-1-methyl-1H-imidazo[4,5-b]pyridine-7-carbonitrile]
< 10	CNc1cn2ncc(Oc3cnc4nc(Nc5cc(OC[C@@H]6CCCN6C)cc(C(F)(F)F)c5)n(C)c4c3Cl)c2cn1 [Example I-331, (S)-7-chloro-1-methyl-6-((6-(methylamino)pyrazolo[1,5-a]pyrazin-3-yl)oxy)-N-(3-((1-methylpyrrolidin-2-yl)methoxy)-5-(trifluoromethyl)phenyl)-1H-imidazo[4,5-b]pyridin-2-amine]
< 10	CNc1cn2ncc(Oc3cnc4nc(Nc5cc(OC[C@H]6CCCN6C)cc(C(F)(F)F)c5)n(C)c4c3Cl)c2cn1 [Example I-332, (R)-7-chloro-1-methyl-6-((6-(methylamino)pyrazolo[1,5-a]pyrazin-3-yl)oxy)-N-(3-((1-methylpyrrolidin-2-yl)methoxy)-5-(trifluoromethyl)phenyl)-1H-imidazo[4,5-b]pyridin-2-amine]
10 to 50	Cn1cc(C(F)(F)F)cc(Nc2nc3ncc(Oc4cnc5[nH]nc(C(F)(F)F)c5c4)c(C#N)c3n2C)c1=O [Example I-333, 1-methyl-2-((1-methyl-2-oxo-5-(trifluoromethyl)-1,2-dihydropyridin-3-yl)amino)-6-((3-(trifluoromethyl)-1H-pyrazolo[3,4-b]pyridin-5-yl)oxy)-1H-imidazo[4,5-b]pyridine-7-carbonitrile]
10 to 50	Cc1c(Oc2cnc3nc(Nc4cc(C(F)(F)F)cn(C)c4=O)n(C)c3c2C#N)cnc2[nH]ccc12 [Example I-334, 1-methyl-6-((4-methyl-1H-pyrrolo[2,3-b]pyridin-5-yl)oxy)-2-((1-methyl-2-oxo-5-(trifluoromethyl)-1,2-dihydropyridin-3-yl)amino)-1H-imidazo[4,5-b]pyridine-7-carbonitrile]
